Assay results as given in ChEMBL document CHEMBL1697821, “Development of a phospholipidosis database and predictive quantitative structure-activity relationship (QSAR) models” (Toxicol Mech Methods, 2008).
*1 amine or outer side, *2 acyl side, *3 side chain or, on linkers, in order; H or OH if unused. Where a SMILES comes first, the peptide text is derived from it. Bridges are numbered along the chain shown (N, C = ends). [ ]: non-standard residue; d: D form. The star is where a group is joined. X1 = NC1=N[C@@H]([C@H](N[*:1])C(=O)[*:2])C[C@H](O)N1; ΔAla(Z-3-ureido) = NC(=O)N/C=C(\N)C(=O)O; β3hOrn = NCCC[C@H](N)CC(=O)*; Dap = NC[C@H](N)C(=O)O

Test system: Phospholipidosis
Test: Literature-mined public compounds from Kruhlak et al phospholipidosis modelling dataset

| Molecule | Phospholipidosis |
| --- | --- |
| O=C(Cn1c(=O)sc2ccc(Cl)cc21)N1CCN(CCO)CC1 [TIARAMIDE] | Negative: based on the absence of positive reported data from WMDD |
| Clc1ccccc1CN1CCc2sccc2C1 [TICLOPIDINE] | Negative: based on the absence of positive reported data from WMDD |
| CCN(CC)CCOc1ccc2c(c1)C(=O)c1cc(OCCN(CC)CC)ccc1-2 [TILORONE] | Positive: strong inducer confirmed by electron microscopy |
| O=C(O)C1CSCN1 (centres undefined) [TIMONACIC] | Negative: based on the absence of positive reported data from WMDD |
| CC(S)C(=O)NCC(=O)O (centres undefined) [TIOPRONIN] | Negative: based on the absence of positive reported data from WMDD |
| Clc1ccc2nsnc2c1NC1=NCCN1 [TIZANIDINE] | Negative: based on the absence of positive reported data from WMDD |
| NC[C@H]1O[C@H](O[C@H]2[C@H](O)[C@@H](O[C@H]3O[C@H](CO)[C@@H](O)[C@H](N)[C@H]3O)[C@H](N)C[C@@H]2N)[C@H](N)C[C@@H]1O [TOBRAMYCIN] | Positive: strong inducer confirmed by electron microscopy |
| Cc1ccc(C(=O)c2cc(O)c(O)c([N+](=O)[O-])c2)cc1 [TOLCAPONE] | Negative: based on the absence of positive reported data from WMDD |
| Cc1ccc(C(=O)C(C)CN2CCCCC2)cc1 (centres undefined) [TOLPERISONE] | Negative: based on the absence of positive reported data from WMDD |
| CN(C)CCOc1ccc(/C(=C(/CCCl)c2ccccc2)c2ccccc2)cc1 [TOREMIFENE] | Negative: based on the absence of positive reported data from WMDD |
| COc1cccc(C2(O)CCCCC2CN(C)C)c1 (centres undefined) [TRAMADOL] | Negative: based on the absence of positive reported data from WMDD |
| CCOC(=O)[C@H](CCc1ccccc1)N[C@@H](C)C(=O)N1[C@H](C(=O)O)C[C@H]2CCCC[C@@H]21 [TRANDOLAPRIL] | Negative: based on the absence of positive reported data from WMDD |
| OCC(Br)(Br)Br [TRIBROMOETHANOL] | Negative: based on the absence of positive reported data from WMDD |
| NS(=O)(=O)c1cc2c(cc1Cl)NC(C(Cl)Cl)NS2(=O)=O (centres undefined) [TRICHLORMETHIAZIDE] | Negative: based on the absence of positive reported data from WMDD |
| O=C(CCCN1CCC(O)(c2cccc(C(F)(F)F)c2)CC1)c1ccc(F)cc1 [TRIFLUPERIDOL] | Negative: based on the absence of positive reported data from WMDD |
| CCC(COC(=O)c1cc(OC)c(OC)c(OC)c1)(c1ccccc1)N(C)C (centres undefined) [TRIMEBUTINE] | Negative: based on the absence of positive reported data from WMDD |
| CN1C(=O)OC(C)(C)C1=O [TRIMETHADIONE] | Negative: based on the absence of positive reported data from WMDD |
| COc1cc(Cc2cnc(N)nc2N)cc(OC)c1OC [TRIMETHOPRIM] | Negative: based on the absence of positive reported data from WMDD |
| COc1cc(C(=O)N2CCOCC2)cc(OC)c1OC [TRIMETOZINE] | Negative: based on the absence of positive reported data from WMDD |
| CC(CN(C)C)CN1c2ccccc2CCc2ccccc21 (centres undefined) [TRIMIPRAMINE] | Positive: weak inducer based on presence of foamy macrophages and cytoplasmic vacuolations |

| Molecule | Phospholipidosis |
| --- | --- |
| CCN(CC)CCOc1ccc(C(O)(Cc2ccc(Cl)cc2)c2ccc(C)cc2)cc1 (centres undefined) [TRIPARANOL] | Positive: strong inducer confirmed by electron microscopy |
| CN(C)CCN(Cc1ccccc1)c1ccccn1 [TRIPELENNAMINE] | Positive: weak inducer based on presence of foamy macrophages and cytoplasmic vacuolations |
| Cc1ccc(/C(=C\CN2CCCC2)c2ccccn2)cc1 [TRIPROLIDINE] | Negative: based on the absence of positive reported data from WMDD |
| Cc1c(C)c2c(c(C)c1O)CCC(C)(COc1ccc(CC3SC(=O)NC3=O)cc1)O2 (centres undefined) [TROGLITAZONE] | Negative: based on the absence of positive reported data from WMDD |
| CCCC(CCC)C(=O)O [VALPROIC ACID] | Negative: confirmed by electron microscopy |
| CCCC(CCC)C(N)=O [VALPROMIDE] | Negative: based on the absence of positive reported data from WMDD |
| COc1ccc(C(CN(C)C)C2(O)CCCCC2)cc1 (centres undefined) [VENLAFAXINE] | Negative: based on the absence of positive reported data from WMDD |
| CC[C@]1(O)C[C@@H]2CN(CCc3c([nH]c4ccccc34)[C@@](C(=O)OC)(c3cc4c(cc3OC)N(C)[C@H]3[C@@](O)(C(=O)OC)[C@H](OC(C)=O)[C@]5(CC)C=CCN6CC[C@]43[C@@H]65)C2)C1 [VINBLASTINE] | Negative: confirmed by electron microscopy |
| CC[C@]1(O)C[C@@H]2CN(CCc3c([nH]c4ccccc34)[C@@](C(=O)OC)(c3cc4c(cc3OC)N(C)[C@H]3[C@@](O)(C(N)=O)[C@H](O)[C@]5(CC)C=CCN6CC[C@]43[C@@H]65)C2)C1 [VINDESINE] | Negative: based on the absence of positive reported data from WMDD |
| NCCC[C@H](N)CC(=O)N[C@H]1CNC(=O)[C@H]([C@H]2C[C@H](O)NC(N)=N2)NC(=O)/C(=C/NC(N)=O)NC(=O)[C@H](CO)NC(=O)[C@H](CO)NC1=O [VIOMYCIN] (β3hOrn-[Dap]SS[ΔAla(Z-3-ureido)][X1]; lactam 1-C) | Negative: based on the absence of positive reported data from WMDD |
| CC(=O)CC(c1ccccc1)c1c(O)c2ccccc2oc1=O (centres undefined) [WARFARIN] | Negative: based on the absence of positive reported data from WMDD |
| O=C[C@H](O)[C@@H](O)[C@H](O)CO [XYLOSE] | Negative: based on the absence of positive reported data from WMDD |
| C[C@H]1CCC[C@H](O)CCCCCc2cc(O)cc(O)c2C(=O)O1 [ZERANOL] | Negative: based on the absence of positive reported data from WMDD |
| Cc1cn([C@H]2C[C@H](N=[N+]=[N-])[C@@H](CO)O2)c(=O)[nH]c1=O [ZIDOVUDINE] | Negative: confirmed by electron microscopy |
| CN(C)C/C=C(/c1ccc(Br)cc1)c1cccnc1 [ZIMELDINE] | Positive: strong inducer confirmed by electron microscopy |
| O=C1Cc2cc(CCN3CCN(c4nsc5ccccc45)CC3)c(Cl)cc2N1 [ZIPRASIDONE] | Negative: based on the absence of positive reported data from WMDD |
| COc1cccc2c1C(=O)c1c(O)c3c(c(O)c1C2=O)C[C@@](O)(/C(C)=N/NC(=O)c1ccccc1)C[C@@H]3O[C@H]1C[C@H](N)[C@H](O)[C@H](C)O1 [ZORUBICIN] | Negative: based on the absence of positive reported data from WMDD |
| IVERMECTIN | Negative: based on the absence of positive reported data from WMDD |
| POLYSORBATE 80 | Negative: based on the absence of positive reported data from WMDD |
